According to patent publication US4562207A, “Prostaglandin analogue” (Ono Pharmaceutical Co., Ltd., priority 1983, dated 1985):
≈ marks a conversion by molar mass, not a printed value. Where two headings read alike, the source gives them in different places.

Experiments:
[1] = tested on: platelet aggregation induced by adenosine-diphosphoric acid (ADP); experiment: inhibiting activity on platelet aggregation induced by ADP on human blood; assay type: cell-based; conditions: for IC50: read-out: IC50 (concentration which produces 50%-inhibition of platelet aggregation); for Relative activity against PGE1: relative to PGE1 (control) = 1.00, ADP-induced
Text: The platelet aggregation was induced by adenosine-diphosphoric acid (ADP) on human blood. The IC50 values given in the Table are the concentrations which produce 50%-inhibition of platelet aggregation.
INHIBITING ACTIVITIES ON PLATELET AGGREGATION INDUCED BY ADP

[2] = tested on: carbon tetrachloride-induced liver damage; experiment: carbon tetrachloride-induced liver damage in rats; assay type: in vivo; conditions: oral, in comparison with controls
Protocol: The experiments were carried out by the methods described in Example 1 of the specification of published W. German Patent Application No. 3310556.1 and Japanese Patent Kokai No. 58-164512, except that carbon tetrachloride was used as a 10% solution in olive oil.

[3] = acute toxicity in mice by oral administration; conditions: mouse, in vivo
Protocol: For example, in a test of acute toxicity in mice by oral administration, the value of LD50 of 6-keto-16S,18S-ethano-20-ethyl-PGE1 for the compound of the present invention is very large; that is the value is more than […] animal body weight.

[4] = ADP-induced platelet aggregation, human blood

IC50 [1, 4]	SMILES	Relative activity against PGE1 ([1]; human blood)	IC50 ([1]; Homo sapiens, Platelet)	activity as compared with the comparison compound (times as strong) ([1]; compared with compound of Example 2(d) of U.S. Pat. No. 4,278,688, platelet aggregation)	inhibition of plasma GOT (glutamic oxalacetic transaminase) ([2]; 20 μg/kg)	inhibition of plasma GPT (glutamic pyruvic transaminase) ([2]; 20 μg/kg)	inhibition of plasma GOT (glutamic oxalacetic transaminase) ([2]; 50 μg/kg)	inhibition of plasma GPT (glutamic pyruvic transaminase) ([2]; 50 μg/kg)	LD50 [3]
34.5 ng/mL (≈ 97.3 nM)	CCCCC[C@H](O)/C=C/[C@H]1[C@H](O)CC(=O)[C@@H]1CCCCCCC(=O)O [PGE1, reference compound]								
3.6 ng/mL (≈ 8.25 nM)	CCCCC1CCC([C@H](O)/C=C/[C@H]2[C@H](O)CC(=O)[C@@H]2CC(=O)CCCCC(=O)OC)C1 (some centres unmarked) [reference compound]	9.58							
	CCCC[C@H]1CC[C@H]([C@H](O)/C=C/[C@H]2[C@H](O)CC(=O)[C@@H]2CC(=O)CCCCC(=O)O)C1 [6-keto-16S,18S-ethano-20-ethyl-PGE1, 6,9-dioxo-11α,15α-dihydroxy-16S,18S-ethano-20-ethylprost-13E-enoic acid]	431	0.08 ng/mL (≈ 0.189 nM)	about 45 times	47%	42%	64%	66%	> 3 mg/kg
